Measurements: patent US20120022024A1, “ANTI-BACTERIAL COMPOSITIONS AND METHODS INCLUDING TARGETING VIRULENCE FACTORS OF STAPHYLOCOCCUS AUREUS” (priority 2009, published 2012)
Counter-ions that a name gives are not always drawn. Like-named read-outs stand apart in the source and are kept apart here.

How the values were obtained:
[1] = target: S. aureus CrtM (dehydrosqualene synthase) (Staphylococcus aureus, UniProt A9JQL9); assay: CrtM enzyme inhibition assay
[2] = test system: staphyloxanthin (STX) biosynthesis in S. aureus; assay: Staphyloxanthin biosynthesis inhibition assay; format: cell-based, Staphylococcus aureus
Method: The question next arises: how potent are these compounds in inhibiting STX biosynthesis in S. aureus? We thus treated S. aureus bacteria with serially diluted compounds at 37° C. for 3 days, after which the STX pigment was extracted with methanol. Optical densities were measured at 450 nm and IC50 values for inhibition of pigment formation for each compound were calculated using a standard dose-response curve. The rank ordered IC50 values of the 38 compounds investigated are shown in Table 7 and dose-response curves of representative compounds are shown in FIG. 2.
The S. aureus strain used was the WT clinical isolate (Pig1) (4). S. aureus was cultured in THB (1 mL) in the presence of inhibitor compounds for 72 h, in duplicate. Cells were then centrifuged and washed twice with PBS. STX was extracted with MeOH and the O.D. was determined at 450 nm using a Perkin Elmer MBA 2000 (Norwalk, Conn.) spectrophotometer.

[3] = target: T1, human squalene synthase (hSQS) (Homo sapiens, UniProt P37268); assay: Human SQS enzyme inhibition assay; format: biochemical; settings: for CrtM/hSQS selectivity: IC50(hSQS)/IC50(CrtM); for IC50: Table 8; for pIC50 (CrtM) − pIC50 (hSQS): experimental data; for relative CrtM/hSQS selectivity: selectivity of compound/selectivity of 1
T1 construct: a double truncated protein lacking residues 31 at the N-terminus and 46 at the C-terminus; six-histidine tag (pET-28a) (N); made in house; host or cells: E. coli BL21 (DE3) RP
T1 sequence (P37268 31-370 limits assumed): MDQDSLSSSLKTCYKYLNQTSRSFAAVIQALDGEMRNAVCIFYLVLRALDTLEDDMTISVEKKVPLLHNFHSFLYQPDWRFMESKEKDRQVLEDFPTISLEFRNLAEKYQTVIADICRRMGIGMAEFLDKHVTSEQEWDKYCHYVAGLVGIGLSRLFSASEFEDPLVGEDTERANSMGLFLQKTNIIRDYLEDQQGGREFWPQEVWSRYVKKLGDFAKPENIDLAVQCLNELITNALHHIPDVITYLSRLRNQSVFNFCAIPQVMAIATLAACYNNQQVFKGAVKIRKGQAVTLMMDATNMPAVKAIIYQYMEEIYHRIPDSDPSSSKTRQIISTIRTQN
Method: The corresponding amplified insert was initially cloned in the vector pGEMT® (Promega). Plasmid was digested with the endonucleases NdeI and BamHI, and the resulting fragment was cloned into the bacterial expression vector pET-28a to give pET28a-HsSQS which was used to transform E. coli BL21 (DE3) RP strain (Novagen) for overexpression.
Bacteria expressing the constructs were cultured in Luria-Bertani medium supplemented with kanamycin (30 μg/ml) and chloramphenicol (34 μg/ml) at 37° C., until the cells reached an OD of 0.4 at 600 nm, and were then induced at 37° C. for 4 h by incubation with 1 mM isopropyl-1-thio-β-D-galactopyranoside. Cells were harvested by centrifugation (10 min, 4000 rpm) and resuspended in 10 ml of lysis/elution buffer (20 mM […], pH 7.4, 10 mM CHAPS, 2 mM MgCl2, 10% glycerol, 10 mM—mercaptoethanol, 500 mM NaCl, 10 mM imidazole, and a protease inhibitor cocktail (Roche), disrupted by sonication, and centrifuged at 16,000 rpm for 30 min. The supernatant ([…]) was then applied to a HiTrap Nickel-Chelating HP column (Amersham Biosciences). Enzyme purification was performed according to the manufacturer's instructions using a Pharmacia FPLC system. Unbound protein was washed off with 50 mM imidazole, then the His6-HsSQS was eluted with 1M imidazole.
SQS activity was based on measuring the conversion of [3H]FPP to [3H]squalene. […] The region of the squalene band was scraped and immersed in Hydrofluor liquid scintillation fluid, and assayed for radioactivity. IC50 values were calculated from the hyperbolic plot of percent of inhibition versus inhibitor concentration, using GraphPad PRISM®.

[4] = test system: S. aureus; settings: treated mice compared to a control group; cited from earlier work
[5] = test system: S. aureus; settings: non-pigmented S. aureus after treatment versus normally pigmented; cited from earlier work
[6] = test system: S. aureus; settings: non-pigmented S. aureus after treatment versus normally pigmented; cited from earlier work; remark: listed apart in the source
[7] = read-out: CrtM enzyme experimental activity IC50, Table 5
[8] = Staphylococcus aureus, 72 h, read-out: Staphyloxanthin IC50
[9] = Staphylococcus aureus, read-out: IC50(STX)
[10] = read-out: CrtM IC50 values, Table 4
[11] = Table 7, S. aureus, 37° C., 3 days, read-out: Staphyloxanthin IC50

Sequence of S. aureus CrtM (dehydrosqualene synthase) (A9JQL9 whole entry): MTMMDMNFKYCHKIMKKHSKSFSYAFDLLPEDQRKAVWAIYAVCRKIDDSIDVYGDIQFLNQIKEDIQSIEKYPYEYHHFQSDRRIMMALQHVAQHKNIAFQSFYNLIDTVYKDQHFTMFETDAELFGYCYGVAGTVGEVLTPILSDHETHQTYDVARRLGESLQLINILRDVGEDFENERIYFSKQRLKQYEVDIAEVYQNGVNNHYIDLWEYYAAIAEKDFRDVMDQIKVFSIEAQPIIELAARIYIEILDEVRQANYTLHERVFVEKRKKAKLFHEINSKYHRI

## O=P([O-])([O-])C(CCc1cccc(Oc2ccccc2)c1)S(=O)(=O)[O-].[K+].[K+].[K+] (stereo not drawn) [Compound 15, 1-Phosphono-3-(3-phenoxyphenyl)propylsulfonic acid tripotassium salt]
[1]
  IC50: > 500 µM
[1]; Table 5
  CrtM enzyme experimental activity pIC50: 3.3
[1]; [7]
  IC50: 500 µM
[2]; [8]
  IC50: 20.4 µM
[3]
  CrtM/hSQS selectivity: 0.0011
  IC50: 0.55 µM
  pIC50 (CrtM) − pIC50 (hSQS): −2.96
  relative CrtM/hSQS selectivity: 0.4

## CP(=O)([O-])C(CCCc1ccc(-c2ccccc2)cc1)P(=O)([O-])[O-].[K+].[K+].[K+] (stereo not drawn) [Compound 4]
[3]
  CrtM/hSQS selectivity: 0.014
  relative CrtM/hSQS selectivity: 4.7

## O=P([O-])([O-])C(Cc1cccc(Oc2ccccc2)c1)S(=O)(=O)[O-].[K+].[K+].[K+] (stereo not drawn) [Compound 14, 1-Phosphono-2-(3-phenoxyphenyl)ethylsulfonic acid tripotassium salt]
[1]; [7]
  IC50: 1700 µM
[2]; [8]
  IC50: 33.9 µM
[3]
  CrtM/hSQS selectivity: 0.0022
  IC50: 3.7 µM
  pIC50 (CrtM) − pIC50 (hSQS): −2.66
  relative CrtM/hSQS selectivity: 0.8

## O=P([O-])([O-])C(CCCc1ccc(-c2ccc(C(F)(F)F)cc2)cc1)P(=O)([O-])[O-].[K+].[K+].[K+].[K+] [Compound 3, 4-[4-(4-Trifluoromethylphenyl)phenyl)]butyldiphosphonic acid dipotassium salt]
[1]
  Ki: ~0.0005 µM
[1]; [7]
  IC50: 0.18 µM
[1]; read-out: IC50 against CrtM
  IC50: 0.2 µM
[2]; [8]
  IC50: 1.1 µM
[3]
  IC50: 0.003 µM

## O=P([O-])([O-])C(CCCc1cccc(Oc2ccccc2)c1)S(=O)(=O)[O-].[K+].[K+].[K+] (stereo not drawn) [Compound 1, 1-Phosphono-4-(3-phenoxyphenyl)butylsulfonic acid tripotassium salt, reference compound]
[1]; read-out: IC50 against CrtM
  IC50: 7.9 µM
[2]; [8]
  IC50: 0.11 µM
[2]; Staphylococcus aureus, read-out: IC50 (STX)
  IC50: 0.11 µM
[2]; [9]
  IC50: 0.11 µM
[2]; Staphylococcus aureus, read-out: IC50 for STX biosynthesis
  IC50: 0.11 µM
[4]
  bacterial counts in kidneys reduced / bacterial growth inhibited: 98%
[5]
  susceptibility to killing by hydrogen peroxide: much more susceptible to killing by hydrogen peroxide
[6]
  survival in freshly isolated human whole blood: less able to survive in freshly isolated human whole blood

## O=P([O-])([O-])C(CCCc1ccc(-c2ccc(C(F)(F)F)cc2)cc1)P(=O)([O-])[O-].[K+].[K+].[K+].[K+] [Compound 3]
[1]; Table 5
  CrtM enzyme experimental activity pIC50: 6.74
[3]
  CrtM/hSQS selectivity: 0.014
  pIC50 (CrtM) − pIC50 (hSQS): −1.86
  relative CrtM/hSQS selectivity: 4.8

## O=C(CP(=O)(O)O)NCCc1cccc(Oc2ccccc2)c1 [compound 897]
[1]
  IC50: 323 µM
[2]; [9]
  IC50: 3 µM

## O=C(CP(=O)(O)O)N(O)CCCc1cccc(Oc2ccc(Cl)c(Cl)c2)c1 [compound 927]
[1]
  IC50: 67.2 µM
[2]; [9]
  IC50: 0.042 µM

## O=C(CP(=O)(O)O)NCCCCc1cccc(Oc2ccccc2)c1 [compound 898]
[1]
  IC50: 1080 µM
[2]; [9]
  IC50: 35 µM

## 1-Phosphono-4-[3-(4-chlorophenoxy)phenyl]butylsulfonic acid tripotassium salt [Compound 24]
[1]; Table 5
  CrtM enzyme experimental activity pIC50: 5.6
[1]; [10]
  IC50: 2.5 µM
[1]; [7]
  IC50: 2.5 µM
[2]; [11]
  IC50: 0.039 µM

## 1-Phosphono-4-[3-(3,5-dichlorophenoxy)phenyl]butylsulfonic acid tripotassium salt [Compound 34]
[1]; Table 5
  CrtM enzyme experimental activity pIC50: 5.2
[1]; [10]
  IC50: 6.3 µM
[1]; [7]
  IC50: 6.3 µM
[2]; [11]
  IC50: 0.051 µM

## O=P([O-])([O-])[C@H](CCCc1cccc(Oc2ccccc2)c1)S(=O)(=O)[O-].[K+].[K+].[K+] [Compound (S)-1, (1S)-1-Phosphono-4-(3-phenoxyphenyl)butylsulfonic acid tripotassium salt]
[1]; fold, versus (R)-1
  more active than its (R)-enantiomer in CrtM inhibition: ~30 ×
[1]; read-out: IC50 against CrtM
  IC50: 1.4 µM
[2]; [8]
  IC50: 0.05 µM

## O=C(CP(=O)(O)O)N(O)Cc1cccc(-c2cccc(-c3ccccc3)c2)c1 [compound 810]
[1]
  IC50: 597 µM
[2]; [9]
  IC50: 158 µM

## O=P(O)(O)C(CCCc1ccc(-c2ccccc2)cc1)P(=O)(O)O [Compound 2, 4-(4-Biphenyl)butyldiphosphonic acid tetrapotassium salt]
[1]
  IC50: 0.48 µM
  Ki: ~0.001 µM
[1]; read-out: IC50 against CrtM
  IC50: 0.5 µM
[2]; [8]
  IC50: 2.2 µM

## Cc1ccc(-c2ccc(CCCN(O)C(=O)CP(=O)(O)O)cc2)cc1 [compound 826]
[1]
  IC50: > 1500 µM
[2]; [9]
  IC50: 4.11 µM

## O=C(CP(=O)(O)O)OCCCc1cccc(Oc2ccccc2)c1 [compound 887]
[1]
  IC50: 1190 µM
[2]; [9]
  IC50: 1.5 µM

## O=C(CP(=O)(O)O)NCCCc1cccc(Oc2ccc(Cl)c(Cl)c2)c1 [compound 886]
[1]
  IC50: 7 µM
[2]; [9]
  IC50: 0.04 µM

## 1-Phosphono-4-[3-(benzofuran-5-yloxy)phenyl]butylsulfonic acid tripotassium salt [Compound 32]
[1]; Table 5
  CrtM enzyme experimental activity pIC50: 5.67
[1]; [10]
  IC50: 2.1 µM
[1]; [7]
  IC50: 2.1 µM
[2]; [11]
  IC50: 0.015 µM
